The source of these data is ChEMBL document CHEMBL5625237 (Eur J Med Chem, 2023).

In data set [1] the test system is SARS-CoV-2. Nature of the data set: microbe, parasite or virus in culture. The note with it: Severe acute respiratory syndrome coronavirus 2, USA/NYU-VC-003/2020, A549-ACE2.
In data set [2] the target is T1, Replicase polyprotein 1ab (Severe acute respiratory syndrome coronavirus 2, UniProt P0DTD1). Nature of the data set: Inhibition of recombinant full length his tagged C-terminal SARS-CoV 2 main protease (M1 to Q307 residues) expressed in Escherichia coli BL21 (DE3) cells using LGSAVLQ-Rh110-dP as peptide substrate preincubated for 1 hr followed by substrate addition and measured after 24 hrs by fluorescence based analysis.

Data set [3] can be described thus: Cytotoxicity against human Calu-3 cells measured after 2 days by MTT assay. It counts as toxicity, cell-based. The conditions noted are these: time 2 day.
Data set [4] concerns SARS-CoV-2. Kind of data set: Antiviral activity against SARS CoV-2 (hCoV-19/Korea/KCDC06/2020) infected in human Calu-3 cells pre-infected with virus followed by compound addition and measured after 2 days post infection. It counts as functional, organism-based. The conditions noted are these: Severe acute respiratory syndrome coronavirus 2, hCoV-19/Korea/KCDC06/2020, Calu-3, 48 h.

A short description of data set [5]: Selectivity index, ratio of CC50 for human Calu-3 cells to EC50 for SARS CoV-2 (hCoV-19/Korea/KCDC06/2020) infected in human Calu-3 cells. It counts as toxicity, cell-based. The note with it: read-out: Ratio CC50/EC50.
Data set [6] has as its system SARS-CoV-2. Nature of the data set: Antiviral activity against SARS-CoV-2 (nCoV-2019BetaCoV/Wuhan/WIV04/2019) infected in african green monkey Vero E6 cells preincubated with compound for 1 hr followed by viral infection for 2 hrs and measured after 24 hrs post infection by real time PCR analysis. It counts as functional, organism-based. The conditions noted are these: Severe acute respiratory syndrome coronavirus 2, nCoV-2019BetaCoV/Wuhan/WIV04/2019, Vero C1008.

In data set [7] the target is T1, Replicase polyprotein 1ab. Kind of data set: Inhibition of recombinant full length SARS-CoV-2 main protease expressed in Escherichia coli preincubated for 10 mins followed by substrate addition and measured every 30 secs for 10 mins.
Data set [8] addresses Replicase polyprotein 1ab (Severe acute respiratory syndrome coronavirus 2) (UniProt P0DTD1). Kind of data set: Inhibition of recombinant full length his tagged C-terminal SARS-CoV 2 main protease (M1 to Q307 residues) expressed in Escherichia coli BL21 (DE3) cells using LGSAVLQ-Rh110-dP as peptide substrate at 10 uM preincubated for 1 hr followed by substrate addition and measured after 24 hrs by fluorescence based analysis relative to control. The conditions noted are these: time 25.0 hrs.

The structures appear in SMILES notation.

In the data set with SARS-CoV-2 [1], `COc1cccc2[nH]c(C(=O)N[C@@H](CC(C)C)C(=O)N[C@@H](C[C@@H]3CCNC3=O)C(=O)CO)cc12` [PF-00835231] came in with an EC50 of 0.221 µM.

`O=C(NCCCNC(=O)n1cc(F)c(=O)[nH]c1=O)c1ccc2cc[nH]c2c1`: the IC50 in data set [2] came to 2.4 µM. The compound `CC(C)Cn1c(C(=O)NCCCNC(=O)n2cc(F)c(=O)[nH]c2=O)cc2cc(Cl)ccc21` registered a CC50 at 48 h in data set [3] above 100 µM. In the data set on SARS-CoV-2 [4], this compound displayed an EC50 of 18 µM. Moreover, the IC50 in data set [2] worked out at 0.35 µM. In addition, in data set [5], the selectivity ratio was above 5.5. On to `O=C(Cc1ccccc1)N1CCC(CCCNC(=O)n2cc(F)c(=O)[nH]c2=O)CC1`, for which, in data set [2], the IC50 was determined as 3.9 µM. In data set [3], `CC(C)Cn1c(C(=O)NCCCNC(=O)n2ccc(=O)[nH]c2=O)cc2cc(F)ccc21` returned a 50% cytotoxic concentration (CC50) at 48 h above 100 µM. For the same compound, the IC50 in data set [2] came to 0.57 µM. In data set [3], `CC(C)(C)CC(=O)N1CCC(CCCNC(=O)n2cc(F)c(=O)[nH]c2=O)CC1` showed a CC50 at 48 h of 99 µM. In addition, the EC50 in the data set on SARS-CoV-2 [6] was determined as 0.53 µM; in the data set on SARS-CoV-2 [4] it was 12 µM. The IC50 in data set [7] came to 0.053 µM; in data set [2], 1.7 µM. Also, the selectivity ratio in data set [5] is 8.3. Consider `CCC(CC)COC(=O)[C@H](C)N[P@](=O)(OC[C@H]1O[C@@](C#N)(c2ccc3c(N)ncnn23)[C@H](O)[C@@H]1O)Oc1ccccc1`, for which the cytotoxic concentration (CC50) at 48 h in data set [3] is above 100 µM. Also, the EC50 in the data set with SARS-CoV-2 [4] was found to be 0.58 µM. Moreover, in data set [5], the selectivity ratio is above 172. For `Cc1ccc2c(c1)cc(C(=O)NCCCNC(=O)n1cc(F)c(=O)[nH]c1=O)n2CC(C)C`, the IC50 in data set [2] stood at 1.2 µM. On to `CCn1c(C(=O)NCCCNC(=O)n2cc(F)c(=O)[nH]c2=O)cc2ccccc21`, for which the IC50 in data set [2] came to 1.9 µM. Turning to `CCCCCCNC(=O)n1cc(F)c(=O)[nH]c1=O` [CARMOFUR], the CC50 at 48 h in data set [3] was above 100 µM. The concentration giving a half-maximal response (EC50) with SARS-CoV-2 [4] is above 100 µM.

With `O=C(NCCCC1CCCCC1)n1cc(F)c(=O)[nH]c1=O`, in data set [2], the IC50 was determined as 3.3 µM. On the same count and under the same terms, the same measure for `O=C(NCCCCc1ccccc1)n1cc(F)c(=O)[nH]c1=O`: 3.9 µM. With `CC(C)Cn1c(C(=O)NCCCNC(=O)n2cc(F)c(=O)[nH]c2=O)cc2cc(F)ccc21`, in data set [3], the CC50 at 48 h turned out to be 98 µM. In addition, the EC50 with SARS-CoV-2 [4] is 29 µM. For the same compound, in data set [2], the IC50 worked out at 0.37 µM. For the same compound, the selectivity ratio in data set [5] worked out at 3.3. Turning to `O=C(NCCC1CCCCC1)n1cc(F)c(=O)[nH]c1=O`, the IC50 in data set [2] stood at 4.9 µM. In data set [3], `CC(C)Cn1c(C(=O)NCCCNC(=O)n2ccc(=O)[nH]c2=O)cc2cc(Cl)ccc21` yielded a 50% cytotoxic concentration (CC50) at 48 h above 100 µM. Further, the IC50 in data set [2] is 1.6 µM.

As to `CC(C)C[C@H](CNC(=O)c1cc2ccccc2[nH]1)CNC(=O)n1cc(F)c(=O)[nH]c1=O`, the IC50 in data set [2] was found to be 4.4 µM. On the same count and under the same terms, the same measure for `COc1ccc2c(c1)cc(C(=O)NCCCNC(=O)n1cc(F)c(=O)[nH]c1=O)n2CC(C)C`: 1.4 µM. Regarding `Cc1cn(C(=O)NCCCNC(=O)c2cc3cc(F)ccc3n2CC(C)C)c(=O)[nH]c1=O`, in data set [3], the CC50 at 48 h is above 100 µM. The IC50 in data set [2] was found to be 0.7 µM. On to `CCCCCCNC(=O)n1cc(C)c(=O)[nH]c1=O`, for which the IC50 in data set [2] came out at 7.6 µM. The same measure, in the same setting: the same measure for `Cn1c(C(=O)NCCCNC(=O)n2cc(F)c(=O)[nH]c2=O)cc2ccccc21`: 1.5 µM; for `CC(C)(C)OC(=O)N1CCC(CCCNC(=O)n2cc(F)c(=O)[nH]c2=O)CC1`: 3.4 µM. Take `Cc1cn(C(=O)NCCCNC(=O)c2cc3cc(Cl)ccc3n2CC(C)C)c(=O)[nH]c1=O`: in data set [3], the CC50 at 48 h was above 100 µM. Also, the half-inhibitory concentration (IC50) in data set [2] came to 1.3 µM. As for `CC(C)Cn1c(C(=O)NCCCNC(=O)n2cc(F)c(=O)[nH]c2=O)cc2cc(C(F)(F)F)ccc21`, the IC50 in data set [2] was 0.79 µM.

On to `CCCCCCNC(=O)n1cc(C(F)(F)F)c(=O)[nH]c1=O`, for which the IC50 in data set [2] came out at 7.4 µM. `CCCCCCNC(=O)n1cc(Br)c(=O)[nH]c1=O`: in data set [2], the IC50 turned out to be 7.4 µM. As to `O=C(CC1CCCCC1)N1CCC(CCCNC(=O)n2cc(F)c(=O)[nH]c2=O)CC1`, the EC50 in the data set on SARS-CoV-2 [6] is 0.72 µM. Also, the IC50 in data set [7] turned out to be 0.04 µM; in data set [2], 4.5 µM. Regarding `CCCCCCNC(=O)n1cc(Cl)c(=O)[nH]c1=O`, in data set [2], the IC50 is 5.5 µM.

With `O=C(NCCCNC(=O)n1cc(F)c(=O)[nH]c1=O)c1cc2ccccc2n1Cc1ccccc1`, in data set [2], the IC50 stood at 5.1 µM. `O=C(NCCCC1CCNCC1)n1cc(F)c(=O)[nH]c1=O`: the inhibition in data set [8] stood at 19%.

Consider `O=C(NCCCNC(=O)n1cc(F)c(=O)[nH]c1=O)c1cc2ccccc2[nH]1`, for which the half-inhibitory concentration (IC50) in data set [2] amounted to 2.6 µM. On the same count and under the same terms, the figure for `O=C(c1ccc2cc[nH]c2c1)N1CCC(CCCNC(=O)n2cc(F)c(=O)[nH]c2=O)CC1` is 3.1 µM; for `O=C(NCCCCCCc1ccccc1)n1cc(F)c(=O)[nH]c1=O` it is 3.8 µM; for `CCCCCCNC(=O)n1ccc(=O)[nH]c1=O` it is 9.8 µM. Take `O=C(NCCCc1ccccc1)n1cc(F)c(=O)[nH]c1=O`: the inhibition in data set [8] is 27%. With `CC(C)Cn1c(C(=O)NCCCNC(=O)n2cc(F)c(=O)[nH]c2=O)cc2ccccc21`, the IC50 in data set [2] is 0.97 µM. The same measure, in the same setting: the figure for `Cn1ccc2ccc(C(=O)NCCCNC(=O)n3cc(F)c(=O)[nH]c3=O)cc21` is 3.8 µM; for `CC(C)Cn1c(C(=O)NCCCNC(=O)n2cc(F)c(=O)[nH]c2=O)cc2cc(OC(F)(F)F)ccc21` it is 2.5 µM; for `CCCCCCNC(=O)n1cc(CC)c(=O)[nH]c1=O` it is 6.2 µM. Compound `O=C(NCCC1CCCC1)n1cc(F)c(=O)[nH]c1=O` displayed a CC50 at 48 h in data set [3] above 100 µM. The EC50 in the data set on SARS-CoV-2 [4] was determined as 49 µM. Also, in data set [2], the IC50 came to 4.6 µM. In data set [5], the selectivity ratio is above 2. For the compound `O=C(NCCCCC1CCCCC1)n1cc(F)c(=O)[nH]c1=O`, the inhibition in data set [8] turned out to be 31%.
